This is an account of results in patent US20230127345A1, “SELENOGALACTOSIDE COMPOUNDS FOR THE PREVENTION AND TREATMENT OF DISEASES ASSOCIATED WITH GALECTIN AND THE USE THEREOF” (GALECTIN SCIENCES, LLC, priority 2016, published 2023).

Data set [1] deals with Galectin-3. Nature of the data set: Galectin-3 expression in TGFb1 stimulated LX-2 stellate cells, flow cytometry. The class given is cell-based. Conditions: TGFb1, 5 days serum starved stimulated LX-2 cells. An excerpt: TGFb1 stimulates hepatic stellate cells into the fibrogenesis pathway leading to secretion of collagen and other fibrosis biomarkers. […] While it is known that lactose has binding affinity to Gal-3, galactose lacks this affinity. […] The result confirmed this hypothesis.
On the technique in general: In flow cytometry, cells or beads pass a laser one at a time.

Data set [2] addresses T1, Galectin-3 (Homo sapiens, UniProt P17931). Conditions: cited from earlier work.
Target sequence in this assay (P17931 whole entry, species assumed): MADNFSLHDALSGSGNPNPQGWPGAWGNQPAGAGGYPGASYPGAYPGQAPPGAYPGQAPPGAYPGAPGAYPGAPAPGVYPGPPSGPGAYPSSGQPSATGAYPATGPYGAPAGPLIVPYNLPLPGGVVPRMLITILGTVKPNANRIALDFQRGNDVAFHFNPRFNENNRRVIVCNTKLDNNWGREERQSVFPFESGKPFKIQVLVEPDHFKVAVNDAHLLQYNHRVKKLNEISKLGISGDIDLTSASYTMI
The conditions of data set [3]: pulmonary administration; cited from earlier work.
The next data set concerns HTB-38 cells. Nature of the data set: Cell culture viability, HTB-38. The class given is cell-based. The note with it: HTB-38, exposed over 3 days in standard growth media. The method, then:
Procedure for HTB-38 Cells ([…]) was as follow:
1. HTB-38 cells were resuspended in culture media containing 8 ng/ml h-IFN-gamma, 4× Pen/Strep and 10% Fetal Bovine Serum (Gibco lot# 1260930). 2. Cells were transferred at 100μl/well in assay plate (4,000-10,000 cells/well, passage# 4-30). 3. Tested compound was diluted serially in assay media as above, usually in range of 100 μg/ml to 20 ng/mL 4. 100 μl/well serial diluted compound was added in duplicate to cells. Final volume of each well was 200 μl, containing 4 ng/ml h-IFN-gamma, 2× Pen/Strep, 5. Cells were Incubate 60-90 hours at 37° C. 6. 20 μl of Promega Substrate [CellTiter 96 Aqueous One Solution] Reagent was added to each well. 7. Cells were incubated at 37° C. for 4-8 hrs and read OD at 490 nm.
(§1) Cells were exposed to the G-625 over 3 days in standard growth media.

The target in data set [4] is Gal-3/integrins (αVβ3, αVβ6, αMβ2) (Homo sapiens, UniProt P17931). Nature of the data set: gal-3/integrin interaction ELISA assay. The note with it: compared with TD-139 (G240); FIG. 10, 11A-11C. It counts as biochemical. An excerpt: (§2) Experiments have been performed to evaluate the physical interaction of galectin proteins with these various biological ligands mediating cellular functions.
Chain of Gal-3/integrins (αVβ3, αVβ6, αMβ2) (P17931 2-250 limits assumed): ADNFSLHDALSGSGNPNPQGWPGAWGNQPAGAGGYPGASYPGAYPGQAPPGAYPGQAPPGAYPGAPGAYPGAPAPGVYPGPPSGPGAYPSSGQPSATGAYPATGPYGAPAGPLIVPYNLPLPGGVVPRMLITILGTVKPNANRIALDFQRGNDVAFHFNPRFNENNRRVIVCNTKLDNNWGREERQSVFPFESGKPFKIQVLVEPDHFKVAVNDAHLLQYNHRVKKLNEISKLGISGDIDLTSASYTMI
In general terms: In an ELISA, binding on a coated surface is turned into a signal by an enzyme label.

Data set [5] deals with Galectin 1 and integrin aBV6 (Homo sapiens, UniProt P09382). In words: ELISA format with pairs of galectins and integrins. It counts as biochemical. Conditions: FIG. 15.
Chain of Galectin 1 and integrin aBV6 (P09382 whole entry, species assumed): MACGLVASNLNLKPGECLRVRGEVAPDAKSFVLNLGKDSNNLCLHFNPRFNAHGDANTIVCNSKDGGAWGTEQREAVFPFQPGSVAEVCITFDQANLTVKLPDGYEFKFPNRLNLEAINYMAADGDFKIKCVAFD
Data set [6] has as its target Galectin-9 and integrin aMB2 (Homo sapiens, UniProt O00182). In words: ELISA format with pairs of galectins and integrins. The class given is biochemical. The note with it: FIG. 15.
For data set [7], the target named is T1, Galectin-3. In words: ELISA of Galectin-3 binding inhibition (anti-Galectin-3 antibodies).
Text: as §2
Target sequence in this assay (P17931 whole entry): as the sequence (P17931 whole entry, species assumed) above

In data set [8] the target is T1, Galectin-3. In words: Fluorescent polarization assay with fluorescent ligand. The class given is binding. The note with it: for inhibition of Galectin-3 CRD specific fluorescent-ligand: Fluorescent polarization, inhibition curves.
Target sequence in this assay (P17931 whole entry): as the sequence (P17931 whole entry, species assumed) above
The subject of a further data set is MCP-1. In words: In-vitro inflammatory model, MCP-1 in endotoxin stressed THP-1 monocytes. Conditions: THP-1 stimulated with endotoxin for 5 days. It counts as cell-based. Here is the method: A model of macrophage polarization was set up, starting from THP-1 monocytes culture which is differentiated into inflammatory macrophages using PMA (Phorbol 12-myristate 13-acetate) for 2-4 days. Once differentiated (MO macrophages), the macrophages were induced with LPS or LPS and IFN-gamma for macrophage activation (M1) to inflammatory stage for 1-3 days. Array of cytokines and chemokines were analyzed to confirm the polarization of THP-1-derived macrophages to inflammatory stage. The impact of the anti-galectin 3 compounds on macrophage polarization was assessed first by monitoring cell viability using a colorimetric method (using a tetrazolium reagent) to determine the number of viable cells in proliferation or cytotoxicity assays (Promega, The CellTiter 96® AQueous One Solution Cell Proliferation Assay which contains a novel tetrazolium compound [3-(4,5-[…])-5-(3-carboxymethoxyphenyl)-2-(4-sulfophenyl)-2H-tetrazolium, inner salt; MTS] and an electron coupling reagent (phenazine ethosulfate; PES)) and inflammatory stage evaluated by a quantitatively measure of the chemokine Monocyte Chemoattractant Protein-1 (MCP-1/CCL2), a key protein that regulates migration and infiltration of monocytes/macrophages in cellular process of inflammation. Follow-up testing for the expression and secretion of other cytokines and chemokines were done for leading active compounds. […]

Another data set relates to MCF-7 cells. Nature of the data set: Cell culture viability, MCF-7. The class given is cell-based. The note with it: MCF-7, exposed over 3 days in standard growth media. The method, then:
Procedure for MCF-7 Cells ([…]) was as follow:
1. MCF-7 cells were resuspended in culture media containing 4× Pen/Strep and 0.25% Fetal Bovine Serum (Gibco lot# 1202161). 2. 100 ul media was added with approximately 4,000-10,000 cells/well, passage # 5 up to 30) and cells were incubated for at least 24 hrs at 37° C. 3. Tested compound was diluted serially in assay media as above, usually at a range of 100 μg/ml to 20 ng/mL 4. […] serial diluted compound was added in duplicate to cells in assay plate. Final volume of each well was […], (containing 2× Pen/Strep, 0.25% FBS and compound as indicated 5. Cells were incubated 60-80 hours at 37° C. 6. […] of Promega Substrate [CellTiter 96 Aqueous One Solution] Reagent was added to each well. 7. Cells were incubated 37° C. for 4-8 hrs and read OD at 490 nm.
as §1

Data set [9] addresses gal-3 with Integrin (aMB2) (Homo sapiens, UniProt P17931). Nature of the data set: gal-3/integrin interaction ELISA, Integrin (aMB2). It counts as biochemical. Conditions: FIG. 11D and 11E.

The structures appear in SMILES notation.

Chain of gal-3 with Integrin (aMB2) (P17931 whole entry): as the sequence (P17931 whole entry, species assumed) above
Chain of Galectin-9 and integrin aMB2 (O00182 whole entry, species assumed): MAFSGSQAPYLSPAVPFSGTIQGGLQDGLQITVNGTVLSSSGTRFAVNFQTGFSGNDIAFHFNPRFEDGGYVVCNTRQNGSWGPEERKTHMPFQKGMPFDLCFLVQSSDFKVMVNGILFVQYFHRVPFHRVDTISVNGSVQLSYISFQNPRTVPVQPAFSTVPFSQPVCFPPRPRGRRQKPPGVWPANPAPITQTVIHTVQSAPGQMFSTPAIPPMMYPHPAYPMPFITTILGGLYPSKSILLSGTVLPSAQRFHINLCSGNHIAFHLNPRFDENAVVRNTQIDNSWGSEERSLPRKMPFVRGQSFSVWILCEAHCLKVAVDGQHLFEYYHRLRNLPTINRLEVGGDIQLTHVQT

For `OC[C@H]1O[C@@H](O[C@H]2[C@H](O)[C@@H](O)C(O)O[C@@H]2CO)[C@H](O)[C@@H](O)[C@H]1O` (stereo partly shown) [Lactose, reference compound], in the data set with Galectin-3 [1], the galectin-3 expression result is listed as “would have effect (at relatively high concentrations)”.
As to `OC[C@H]1O[C@@H](S[C@@H]2O[C@H](CO)[C@H](O)[C@H](n3cc(-c4cccc(F)c4)nn3)[C@H]2O)[C@H](O)[C@@H](n2cc(-c3cccc(F)c3)nn2)[C@H]1O` [TD-139, beta-D-Galactopyranoside, 3-deoxy-3-(4-(3-fluorophenyl)-1H-1,2,3-triazol-1-yl)-beta-D-galactopyranosyl 3-deoxy-3-(4-(3-fluorophenyl)-1H-1,2,3-triazol-1-yl)-1-thio-], the “binding to galectin 3” value on Galectin-3 [2] is given as “reported to bind to galectin 3”. Also, the “efficacy in mouse model of lung fibrosis” value in data set [3] is reported as “effective”.
As usually defined, the IC50 is the concentration at which inhibition is half-maximal. Low readings indicate higher potency, high ones lower potency. `OC[C@H]1O[C@@H]([Se][C@@H]2O[C@H](CO)[C@H](O)[C@H](n3cc(-c4cccc(F)c4)nn3)[C@H]2O)[C@H](O)[C@@H](n2cc(-c3cccc(F)c3)nn2)[C@H]1O` [G-625, beta-D-Galactopyranoside, 3-deoxy-3-(4-(3-fluorophenyl)-1H-1,2,3-triazol-1-yl)-beta-D-galactopyranosyl 3-deoxy-3-(4-(3-fluorophenyl)-1H-1,2,3-triazol-1-yl)-1-seleno-]: the “cytotoxicity (cell culture viability)” value with HTB-38 cells and in the data set with MCF-7 cells was “no cytotoxicity” in each case. Moreover, the “inhibition of Gal-3/integrins” value in data set [4] was “more potent inhibitor of Gal-3/integrins than TD-139 (G240)”. Moreover, the “inhibition of interaction between Galectin 1 and integrin aBV6” value in data set [5] is “significantly inhibited”. In addition, in data set [6], the “inhibition of interaction between Galectin-9 and integrin aMB2” value is “significantly inhibited”. The IC50 was 14.4 nM at Galectin-3 [7] and 259 nM at Galectin-3 [8]. For the same molecule, the “inhibition of Galectin-3 CRD specific fluorescent-ligand” value against Galectin-3 [8] is on record as “twice better inhibitor then G-240 (TD-139)”. Besides, in the data set on MCP-1, the “secretion of MCP-1” value is “inhibitory effect on the inflammatory stage by reducing the secretion of MCP-1”. The galectin-3 expression entry in the data set with Galectin-3 [1] is on record as “enhanced activity of G-625 versus G-240”; in the data set with Galectin-3 [1] (listed as G625), “inhibition of galectin-3 expression”.
Turning to `O=C(C[Se][C@@H]1O[C@H](CO)[C@H](O)[C@H](n2cc(-c3cccc(F)c3)nn2)[C@H]1O)c1ccc(F)c(F)c1` [G-662], in data set [9], the “inhibition of the interaction of gal-3 with integrin” value is “significantly inhibit”. Moreover, at Galectin-3 [8], the “inhibition of Galectin-3 CRD specific fluorescent-ligand” value is listed as “shown to inhibit the Gal-3 binding”.
`OC[C@H]1O[C@@H]([Se]Cc2ccc(F)c(F)c2)[C@H](O)[C@@H](n2cc(-c3cccc(F)c3)nn2)[C@H]1O` [G-656]: in [9], the “inhibition of the interaction of gal-3 with integrin” value was “significantly inhibit”.
As for `O=C[C@H](O)[C@@H](O)[C@@H](O)[C@H](O)CO` [Galactose, reference compound], the galectin-3 expression result in the data set with Galectin-3 [1] is listed as “should not have any effect”.
Molecule `OCC1OC([Se][Se]C2OC(CO)C(O)C(n3cc(-c4cccc(F)c4)nn3)C2O)C(O)C(n2cc(-c3cccc(F)c3)nn2)C1O` (stereo not shown) [G-626] had an IC50 at Galectin-3 [7] of 1160 nM. On Galectin-3 [8], the IC50 was 5290 nM and the “inhibition of Galectin-3 CRD specific fluorescent-ligand” value is “showed an inhibitory activity”. Besides, the “secretion of MCP-1” value in the data set on MCP-1 was “inhibitory effect on the inflammatory stage by reducing the secretion of MCP-1”.
